# Measured values reported in patent US9282738B2, “Antimicrobial compositions and methods of use thereof” (WISCONSIN ALUMNI RESEARCH FOUNDATION, priority 2011, dated 2016).
# Tests used:
# [1] = tested on: C. crescentus (strain CB15N); test: Minimum inhibitory concentration (macrodilution), C. crescentus CB15N; format: cell-based; conditions: Caulobacter vibrioides
# Method: (§1) All cultures were grown for 17 hrs.
# Minimum inhibitory concentration for compounds 1, 6, 7, 8, and 9, determined as in Example 3 using the C. crescentus CB15N strain.
# Vibrio cholerae = test: Minimum inhibitory concentration, pathogenic strain Vibrio cholerae; format: cell-based
# Acinetobacter baumannii = test: Minimum inhibitory concentration, pathogenic strain Acinetobacter baumannii; format: cell-based
# Method: as §1
# [2] = tested on: C. crescentus CB15N ΔzapA; test: Cell length microscopy in ΔzapA strain; format: cell-based, Caulobacter crescentus; conditions: FIGS. 5 and 6
# Method: (§2) Optical microscopy and image analysis: A Nikon Eclipse TE2000E inverted microscope with a Perfect Focus system and an encoded z-stage for phase contrast and epifluorescence microscopy was used. To observe the effect of Compound 1 on cell division, freshly grown cells from an overnight culture were treated with the compound. Small aliquots (1-2 μL) of the cells dosed with Compound 1 were mounted on 1% agarose pads for microscopy. To visualize FtsZ localization, MT196 cells (C. crescentus CB15N PvanA-ftsZ-yfp) were induced with vanilate (0.5 mM) for 1 hr prior to imaging. PSICIC, a MATLAB-based script, was used to measure cell lengths (n≧100) for the following strains of C. crescentus: CB15N, CB15N pMT182 (PxylX-mipZ, Cm^R), and CB15N ΔzapA. The CB15N pMT182 strain was treated with 0.2% xylose to induce overexpression of MipZ. For cells that could not be accurately detected by PSICIC, the cell length was manually traced in MetaMorph or ImageJ and the pixel traces were converted to microns. GraphPad InStat was used for statistical analysis of cell length distributions.
# E. coli ΔtolC [3] = test: Minimum inhibitory concentration (macrodilution), E. coli ΔtolC; conditions: Escherichia coli
# Method: Determination of the minimum inhibitory concentration (MIC): The MIC of the small molecule hits was determined using a macrodilution method. All cultures were grown in M8 medium at 37° C., except for C. crescentus (strain CB15N) which was cultured in PYE media at 30° C. C. crescentus and E. coli cultures were incubated while shaking at 200 rpm. Pathogenic clinical strains were grown in static conditions. All cultures were grown for 17 hrs.
# [4] = tested on: FtsB, FtsL, FtsK and FtsI localization in C. crescentus cells; test: Localization of fluorescently-tagged Fts proteins; format: cell-based, Caulobacter crescentus; conditions: late division stage cells vs DMSO control, FIG. 8C
# Method: Strains of C. crescentus that express fluorescently-tagged Fts proteins (FtsB, FtsL, FtsK, and FtsI) were cultured overnight. The overnight cultures were diluted 10-fold and incubated for an hour at 30° C. prior to compound treatment. Cells were induced with xylose (0.3%) to trigger the expression of fluorescently-tagged Fts proteins. After inducing with xylose for 45 min, cells were mounted on agarose pads and imaged as described in Example 4.
# To analyze changes in the localization of Fts proteins, cells in the late division stage were selected for image analysis. At this stage of the cell cycle, cells have a visible constriction at the midcell, and the Fts proteins localize to the constriction site. […] Within the population of cells selected for a visible constriction, cells that have a single fluorescence focus of Fts proteins were counted. […] These cells have clear constrictions at the midcell as shown in brightfield images. In the fluorescence channel, the signal from Venus-FtsI is localized at the septum in the DMSO sample. In contrast, the fluorescence signal is more diffuse throughout the cell body in the sample treated with compound 1. […] The observed decrease in Fts protein localization in the presence of compound 1 was statistically significant when compared to the DMSO solvent control samples.
# C. crescentus CB15N = test: Viability of C. crescentus after exposure to antibiotics (colony counts); format: cell-based, Caulobacter crescentus; conditions: antibiotic at twice its MIC, FIG. 7
# Method: Kanamycin was used as a control since it is a known bacteriocidal agent. An overnight culture of [MUT] in PYE medium was diluted to an optical density of 0.1 (λ=600 nm) and incubated further for 1.5 hrs. After the incubation, the culture was aliquoted into 15 mL conical tubes (1 mL of culture per aliquot) and treated with antibiotics. The final concentration of the antibiotics was twice its minimum inhibitory concentration. Upon addition of antibiotics, the culture tubes were wrapped with aluminum foil and shaken at 250 rpm at 30° C. At every 30 min, 100 μL was withdrawn from each aliquot and serially diluted five times in [MUT] medium. 100 μL of the fifth dilution was spread on PYE plates, the plates were incubated for two days at 30° C., and the number of colonies formed on the plates was counted.
# E. coli ΔtolC [5] = test: Cephalexin-induced cell lysis and filamentation (optical density); format: cell-based, Escherichia coli; conditions: 10 μg/mL cephalexin plus compound 1 (0 to 12.5 μM), FIG. 9C
# [6] = tested on: C. crescentus CB15N pMT182 (PxylX-mipZ); test: Cell length microscopy with MipZ overexpression; format: cell-based, Caulobacter crescentus; conditions: 0.2% xylose induction, FIG. 4
# Method: as §2
# Shigella boydii = test: Minimum inhibitory concentration, pathogenic strain Shigella boydii; format: cell-based
# Method: as §1
# [7] = tested on: C. crescentus CB15N cells; test: Reversibility of cell division inhibition after wash-out; format: cell-based, Caulobacter crescentus; conditions: pre-incubated with 6 μM for 2.5 hours, then diffused out on agarose pad, FIG. 10
# Method: To test whether the inhibitory effect of compound 1 is reversible, the compound was washed out of pre-treated cells and their growth and division monitored using microscopy. A culture of C. crescentus CB15N cells was pre-incubated with 6 μM compound 1 for 2.5 hours at 30° C. A small aliquot of this culture was applied to an agarose pad (2% w/v agarose in PYE media), and the cells were imaged over time while incubating them on the microscope stage at 30° C.
# Escherichia coli = test: Septation during reproduction, E. coli (FIG. 3); format: cell-based
# [8] = tested on: C. crescentus strain (MT97) that expresses mipZ-yfp; test: In vivo screen of cell morphology (septation) by microscopy, C. crescentus; format: cell-based, Caulobacter crescentus; conditions: 20 μM in agarose pad, FIG. 3
# Method: In vivo screen with a Caulobacter crecentus strain that expresses MipZ-YFP: Hits from the in vitro screens were tested for their activity in vivo. A C. crescentus strain (MT97) that expresses mipZ-yfp from the native mipZ promoter was used. An overnight culture of MT97 was diluted to an OD600 of ˜0.1, and the diluted culture was further grown for at least an hour prior to treatment with the compound. Compounds were mixed with a solution of 1% agarose in M2G medium to achieve a final concentration of 20 μM. Cells were inoculated onto the surface of the compound-containing agarose pad (1 μL inoculum per pad), and we observed the cell morphology and localization of MipZ-YFP for a period of 24 hrs. In the time between microscopic observations, the inoculated pads were kept at 30° C. to promote growth.
# E. coli = conditions: reported in the literature; cited from earlier work
# [9] = tested on: MRSA strain of Staphylococcus aureus; conditions: normally lethal dose of MRSA; cited from earlier work
# [10] = C. crescentus CB15N strain, determined as in Example 3
structure (smiles),measurement,setting,value
COc1ccc2ccccc2c1/C=N/NC(=O)CCn1c(C(F)(F)F)nc2ccccc21 [Compound 7],MIC,[1]; [10],> 20 µM
COc1ccc2ccccc2c1/C=N/NC(=O)CCn1c(C)nc2ccccc21 [Compound 8],MIC,[1]; [10],> 20 µM
Cc1nc2ccccc2n1CCC(=O)N/N=C/c1ccccc1O [Compound 9],MIC,[1]; [10],15 µM
Cc1nc2ccccc2n1CCC(=O)N/N=C/c1c(O)ccc2ccccc12 [Compound 1],MIC,Vibrio cholerae,0.4 µM
same,MIC,Acinetobacter baumannii,25 µM
same,effect on cell length in ΔzapA strain,[2],restores cell lengths to near normal lengths
same,MIC,E. coli ΔtolC [3],13.5 µM
same,MIC,[1]; C. crescentus,5 µM
same,MIC,[1]; [10],5 µM
same,population of cells with midcell localization of Fts proteins,[4],decreased the population of cells with a midcell localization of Fts proteins
same,colony forming units over time,C. crescentus CB15N,did not significantly alter the colony forming units over time
same,cell filamentation and lysis on co-treatment with cephalexin,E. coli ΔtolC [5],elongated slowly and did not undergo cell lysis
same,effect on cell elongation caused by MipZ overexpression,[6],rescues cell elongation caused by MipZ overexpression
same,MIC,Shigella boydii,50 µM
same,reversibility of inhibitory effect on cell division,[7],reversible
same,effect on septation,Escherichia coli,inhibits septation during reproduction
same,effect on septation / cell morphology,[8],inhibits septation during reproduction in C. crescentus
O=C(CCn1c(C(F)(F)F)nc2ccccc21)N/N=C/c1c(O)ccc2ccccc12 [Compound 6],MIC,[1]; [10],7.5 µM
NC(=O)c1c(F)ccc(OCc2nc3cc(Cl)cnc3s2)c1F [PC190723],MIC,E. coli,> 180 µM
same,protection of mice from lethal infection,[9],protect mice from a normally lethal dose of the MRSA strain of Staphylococcus aureus
